Data as given in US9586951B2 (FUJIFILM Corporation, priority 2013, dated 2017).
Where two headings read alike, the source gives them in different places.

Molecular target: T1, ATM (Homo sapiens, UniProt Q13315)
T1 construct: detecting phosphorylation of Chk2 in a human non-small cell lung cancer cell line NCI-H460 (ATCC company); host or cells: NCI-H460 human non-small cell lung cancer cells
Assay: ATM inhibition test (phosphorylation of Chk2 generated by ionizing radiation, AlphaScreen SureFire)
Type: cell-based
Details: phosphorylated Chk2 in NCI-H460 cells, ionizing radiation 8Gy, 1 hour after test compound treatment
How it was run: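 NCI-H460 cells treated with compound for 1 hour, then irradiated with 8Gy and incubated 1 hour at 37° C. Phospho-Chk2 measured by AlphaScreen SureFire. Inhibition ratio calculated relative to untreated irradiated and non-irradiated wells.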

[1] = read-out: ATM inhibitory activity

T1 sequence (Q13315 whole entry): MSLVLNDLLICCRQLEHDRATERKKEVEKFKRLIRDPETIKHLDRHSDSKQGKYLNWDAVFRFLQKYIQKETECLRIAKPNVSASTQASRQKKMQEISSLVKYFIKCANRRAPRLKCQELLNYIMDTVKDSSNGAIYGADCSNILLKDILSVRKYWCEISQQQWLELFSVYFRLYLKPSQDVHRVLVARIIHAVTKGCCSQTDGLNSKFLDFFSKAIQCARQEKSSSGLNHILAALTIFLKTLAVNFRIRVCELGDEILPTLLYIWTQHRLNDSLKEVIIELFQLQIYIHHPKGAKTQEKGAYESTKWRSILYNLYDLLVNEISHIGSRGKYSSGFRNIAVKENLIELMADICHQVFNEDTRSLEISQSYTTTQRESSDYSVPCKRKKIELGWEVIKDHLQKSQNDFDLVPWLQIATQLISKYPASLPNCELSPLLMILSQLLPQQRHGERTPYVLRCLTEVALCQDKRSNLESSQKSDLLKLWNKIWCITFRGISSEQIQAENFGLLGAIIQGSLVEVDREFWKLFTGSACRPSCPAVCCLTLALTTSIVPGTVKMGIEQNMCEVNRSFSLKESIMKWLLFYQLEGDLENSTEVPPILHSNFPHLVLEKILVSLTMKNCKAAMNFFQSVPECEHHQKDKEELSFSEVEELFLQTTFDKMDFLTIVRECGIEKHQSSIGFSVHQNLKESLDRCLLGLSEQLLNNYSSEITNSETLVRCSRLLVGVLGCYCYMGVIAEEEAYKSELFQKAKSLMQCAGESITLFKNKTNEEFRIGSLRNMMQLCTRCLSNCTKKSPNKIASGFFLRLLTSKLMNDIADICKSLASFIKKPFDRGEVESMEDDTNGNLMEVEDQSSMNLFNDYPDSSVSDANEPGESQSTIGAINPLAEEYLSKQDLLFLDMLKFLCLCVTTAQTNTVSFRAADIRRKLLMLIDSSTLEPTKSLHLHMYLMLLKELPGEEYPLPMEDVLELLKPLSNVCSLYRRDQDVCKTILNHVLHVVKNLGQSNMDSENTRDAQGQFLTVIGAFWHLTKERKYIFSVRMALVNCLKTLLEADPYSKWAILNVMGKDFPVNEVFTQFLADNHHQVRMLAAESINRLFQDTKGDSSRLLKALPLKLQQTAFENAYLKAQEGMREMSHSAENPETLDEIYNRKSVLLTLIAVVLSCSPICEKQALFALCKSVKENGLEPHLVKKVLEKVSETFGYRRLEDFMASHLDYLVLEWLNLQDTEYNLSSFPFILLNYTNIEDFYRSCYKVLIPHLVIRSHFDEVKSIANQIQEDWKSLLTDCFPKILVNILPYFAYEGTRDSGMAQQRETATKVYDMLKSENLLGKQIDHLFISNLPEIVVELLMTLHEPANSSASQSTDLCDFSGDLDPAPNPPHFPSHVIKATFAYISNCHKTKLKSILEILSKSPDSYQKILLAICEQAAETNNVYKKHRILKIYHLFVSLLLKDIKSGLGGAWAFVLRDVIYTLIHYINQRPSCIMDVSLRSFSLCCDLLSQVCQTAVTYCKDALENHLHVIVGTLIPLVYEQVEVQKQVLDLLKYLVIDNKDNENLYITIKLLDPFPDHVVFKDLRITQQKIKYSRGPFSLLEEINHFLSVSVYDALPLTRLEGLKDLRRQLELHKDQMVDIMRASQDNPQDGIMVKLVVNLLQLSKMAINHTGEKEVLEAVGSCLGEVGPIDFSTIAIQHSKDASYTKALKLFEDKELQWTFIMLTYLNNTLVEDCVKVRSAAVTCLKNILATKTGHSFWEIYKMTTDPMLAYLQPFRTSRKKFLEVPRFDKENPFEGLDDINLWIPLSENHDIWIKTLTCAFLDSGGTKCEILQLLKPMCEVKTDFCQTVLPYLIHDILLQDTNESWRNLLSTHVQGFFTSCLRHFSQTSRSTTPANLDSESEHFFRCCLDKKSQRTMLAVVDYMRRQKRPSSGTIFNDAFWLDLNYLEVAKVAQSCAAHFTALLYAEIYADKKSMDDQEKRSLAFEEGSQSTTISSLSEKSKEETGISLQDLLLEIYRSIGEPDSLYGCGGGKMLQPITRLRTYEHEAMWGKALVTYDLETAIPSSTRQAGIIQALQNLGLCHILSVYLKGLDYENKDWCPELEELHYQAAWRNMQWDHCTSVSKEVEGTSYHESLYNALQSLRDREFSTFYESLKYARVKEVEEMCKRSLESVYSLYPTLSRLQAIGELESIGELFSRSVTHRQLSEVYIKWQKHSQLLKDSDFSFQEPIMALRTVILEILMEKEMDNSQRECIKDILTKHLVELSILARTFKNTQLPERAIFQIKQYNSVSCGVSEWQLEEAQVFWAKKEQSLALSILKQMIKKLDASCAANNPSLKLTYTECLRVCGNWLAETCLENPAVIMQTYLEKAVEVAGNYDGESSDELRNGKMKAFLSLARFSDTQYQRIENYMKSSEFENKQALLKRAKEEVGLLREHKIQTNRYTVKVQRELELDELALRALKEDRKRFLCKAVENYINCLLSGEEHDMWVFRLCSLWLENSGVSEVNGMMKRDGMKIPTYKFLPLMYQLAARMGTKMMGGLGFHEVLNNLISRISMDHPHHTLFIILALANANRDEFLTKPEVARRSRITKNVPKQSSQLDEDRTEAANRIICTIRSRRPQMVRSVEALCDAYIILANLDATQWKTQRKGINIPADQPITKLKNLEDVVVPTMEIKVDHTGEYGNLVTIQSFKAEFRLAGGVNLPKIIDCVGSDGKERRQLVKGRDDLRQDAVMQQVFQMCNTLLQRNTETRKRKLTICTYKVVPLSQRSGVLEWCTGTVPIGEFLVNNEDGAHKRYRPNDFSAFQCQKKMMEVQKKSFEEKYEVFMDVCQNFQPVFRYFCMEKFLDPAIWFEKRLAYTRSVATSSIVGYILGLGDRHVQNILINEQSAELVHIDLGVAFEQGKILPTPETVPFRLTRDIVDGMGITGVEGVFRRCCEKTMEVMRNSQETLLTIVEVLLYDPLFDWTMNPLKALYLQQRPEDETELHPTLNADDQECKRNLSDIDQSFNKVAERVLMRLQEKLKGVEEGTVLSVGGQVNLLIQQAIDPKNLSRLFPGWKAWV

Compound | IC50 [1] | IC50 (ATM inhibitory activity)
CNc1ccc2c(c1)Cc1cccc(-c3cc(N4CCOCC4)cc(=O)[nH]3)c1S2 [Example 3-10, 6-(7-(methylamino)-9H-thioxanthen-4-yl)-4-morpholinopyridin-2(1H)-one] | 500 to 2000 nM | 
CCCCC(Nc1ccc2c(c1)Sc1cccc(-c3cc(N4CCOCC4)cc(=O)[nH]3)c1S2)[C@H](C)N1CCOCC1 (stereo partly drawn) [Example 1-21-2, 4-Morpholino-6-(7-(((2S)-2-morpholinoheptan-3-yl)amino)thianthren-1-yl) pyridin-2(1H)-one] | 100 to 500 nM | 
O=c1cc(N2CCOCC2)cc(-c2cccc3c2Sc2ccc(NC(CO)CN4CCOCC4)cc2S3)[nH]1 (stereo not shown) [Example 1-37-2, 6-(7-((1-Hydroxy-3-morpholinopropan-2-yl)amino)thianthren-1-yl)-4-morpholino pyridin-2(1H)-one] | 100 to 500 nM | 
O=c1cc(N2CCOCC2)cc(-c2cccc3c2Oc2ccc(NC4CCN(CC(F)(F)F)CC4)cc2C3)[nH]1 [Example 2-34, 4-Morpholino-6-(7-((1-(2,2,2-trifluoroethyl)piperidin-4-yl)amino)-9H-xanthen-4-yl)pyridin-2(1H)-one] | 100 to 500 nM | 
Cc1cnc(C(CC(C)(C)O)Nc2ccc3c(c2)Sc2cccc(-c4cc(N5CCOCC5)cc(=O)[nH]4)c2S3)cn1 (stereo not shown) [Example 1-12-117, 6-(7-((3-Hydroxy-3-methyl-1-(5-methylpyrazin-2-yl)butyl)amino)thianthren-1-yl)-4-morpholino pyridin-2(1H)-one] | 100 to 500 nM | 
Cc1ccc(C(Nc2ccc3c(c2)Sc2cccc(-c4cc(N5CCOCC5)cc(=O)[nH]4)c2S3)[C@@H]2CCCN2C)nc1 (single isomer, unassigned) [Example 1-56-3] | < 100 nM | 
CC(Nc1ccc2c(c1)Sc1cccc(-c3cc(N4CCOCC4)cc(=O)[nH]3)c1S2)C(=O)N1CCOCC1 (stereo not shown) [Example 1-18-5] | 500 to 2000 nM | 
COCCCN1CCC(Nc2ccc3c(c2)Cc2cccc(-c4cc(N5CCOCC5)cc(=O)[nH]4)c2O3)CC1 [Example 2-30-15, 6-(7-((1-(3-Methoxypropyl)piperidin-4-yl)amino)-9H-xanthen-4-yl)-4-morpholino pyridin-2 (1H)-one] | 500 to 2000 nM | 
O=C(CN1CCOCC1)Nc1ccc2c(c1)Sc1cccc(-c3cc(N4CCOCC4)cc(=O)[nH]3)c1S2 [Example 1-7-4, 2-Morpholino-N-(6-(4-morpholino-6-oxo-1,6-dihydropyridin-2-yl)thianthren-2-yl)acetamide] | 100 to 500 nM | 
O=c1cc(N2CCOCC2)cc(-c2cccc3c2Sc2ccc(NCc4cccc(N5CCOCC5)n4)cc2S3)[nH]1 [Example 1-12-32, 4-Morpholino-6-(7-(((6-morpholinopyridin-2-yl)methyl)amino)thianthren-1 yl)pyridin-2(1H)-one] |  | 100 to 500 nM
CC(CN1CCOCC1)Nc1ccc2c(c1)Sc1cccc(-c3cc(N4CCOCC4)cc(=O)[nH]3)c1S2 (single isomer, unassigned) [Example 1-13-2-3, 4-morpholino-6-(7-((1-morpholinopropan-2-yl)amino)thianthren-1-yl)pyridin-2(1H)-one] | 100 to 500 nM | 
CN(C)[C@H](CNc1ccc2c(c1)Sc1cccc(-c3cc(N4CCOCC4)cc(=O)[nH]3)c1S2)Cc1ccccc1 [Example 1-2-2, (S)-6-(7-((2-(dimethylamino)-3-phenylpropyl)amino)thianthren-1-yl)-4-morpholinopyridin-2(1H)-one] | 100 to 500 nM | 
O=c1cc(N2CCOCC2)cc(-c2cccc3c2Sc2ccc(NC4CCCN(C5CCCCC5)C4)cc2S3)[nH]1 (stereo not shown) [Example 1-24-1, 6-(7-((1-Cyclohexylpiperidin-3-yl)amino)thianthren-1-yl)-4-morpholinopyridin-2(1H)-one] | 100 to 500 nM | 
COc1cccc(CCN2CCC(Nc3ccc4c(c3)Cc3cccc(-c5cc(N6CCOCC6)cc(=O)[nH]5)c3O4)CC2)c1 [Example 2-30-11, 6-(7-((1-(3-Methoxyphenethyl)piperidin-4-yl)amino)-9H-xanthen-4-yl)-4-morpholino pyridin-2 (1H)-one] | 100 to 500 nM | 
CN1CCC(CNc2ccc3c(c2)Sc2cccc(-c4cc(N5CCOCC5)cc(=O)[nH]4)c2S3)CC1 [Example 1-12-31, 6-(7-(((1-Methylpiperidin-4-yl)methyl)amino)thianthren-1-yl)-4-morpholino pyridin-2(1H)-one] | 100 to 500 nM | 

The next lines start with results.

IC50 [1] | Compound | IC50 (ATM inhibitory activity)
100 to 500 nM | O=c1cc(N2CCOCC2)cc(-c2cccc3c2Oc2ccc(NCc4cncnc4)cc2C3)[nH]1 [Example 2-3-2, 4-Morpholino-6-(7-((pyrimidin-5-ylmethyl)amino)-9H-xanthen-4-yl) pyridin-2(1H)-one] | 
100 to 500 nM | CCC(Nc1ccc2c(c1)Cc1cccc(-c3cc(N4CCOCC4)cc(=O)[nH]3)c1O2)c1cncc(OC)c1 (single isomer, unassigned) [Example 2-37, 6-(7-((1-(5-methoxypyridin-3-yl)propyl)amino)-9H-xanthen-4-yl)-4-morpholinopyridin-2(1H)-one] | 
100 to 500 nM | CN1CCN(c2cc(CNc3ccc4c(c3)Cc3cccc(-c5cc(N6CCOCC6)cc(=O)[nH]5)c3O4)ccn2)CC1 [Example 2-22-2, 6-(7-(((2-(4-methylpiperazin-1-yl)pyridin-4-yl)methyl)amino)-9H-xanthen-4-yl)-4-morpholinopyridin-2(1H)-one] | 
100 to 500 nM | COc1ccncc1CNc1ccc2c(c1)Sc1cccc(-c3cc(N4CCOCC4)cc(=O)[nH]3)c1O2 [Example 4-8-10, 6-(8-(((4-Methoxypyridin-3-yl)methyl)amino)phenoxathiin-4-yl)-4-morpholino pyridin-2(1H)-one] | 
500 to 2000 nM | Cc1cccc(C(CO)Nc2ccc3c(c2)Cc2cccc(-c4cc(N5CCOCC5)cc(=O)[nH]4)c2O3)n1 (single isomer, unassigned) [Example 2-14-92-1, 6-(7-((2-hydroxy-1-(6-methylpyridin-2-yl)ethyl)amino)-9H-xanthen-4-yl)-4-morpholinopyridin-2(1H)-one] | 
100 to 500 nM | O=c1cc(N2CCOCC2)cc(-c2cccc3c2Oc2ccc(NCc4cncc(Cl)c4)cc2S3)[nH]1 [Example 4-8-6, 6-(8-(((5-Chloropyridin-3-yl)methyl)amino)phenoxathiin-4-yl)-4-morpholino pyridin-2(1H)-one] | 
100 to 500 nM | Cn1cc(-c2cncc(CNc3ccc4c(c3)Cc3cccc(-c5cc(N6CCOCC6)cc(=O)[nH]5)c3O4)c2)cn1 [Example 2-2-49, 6-(7-(((5-(1-Methyl-1H-pyrazol-4-yl)pyridin-3-yl)methyl)amino)-9H-xanthen-4-yl)-4-morpholino pyridin-2(1H)-one] | 
100 to 500 nM | Cc1cncc(CNc2ccc3c(c2)Cc2cccc(-c4cc(N5CCOCC5)cc(=O)[nH]4)c2O3)c1 [Example 2-2-9, 6-(7-(((5-Methylpyridin-3-yl)methyl)amino)-9H-xanthen-4-yl)-4-morpholino pyridin-2(1H)-one] | 
100 to 500 nM | Cc1cc(CNc2ccc3c(c2)Cc2ccnc(-c4cc(N5CCOCC5)cc(=O)[nH]4)c2O3)ccn1 [Example 2-42-3, 6-(7-(((2-Methylpyridin-4-yl)methyl)amino)-5H-chromeno[2,3-c]pyridin-1-yl)-4-morpholinopyridin-2(1H)-one] | 
100 to 500 nM | O=c1cc(N2CCOCC2)cc(-c2cc(F)cc3c2Oc2ccc(NCc4cc(C5CC5)ccn4)cc2C3)[nH]1 [Example 2-48-4, 6-(7-(((4-Cyclopropylpyridin-2-yl)methyl)amino)-2-fluoro-9H-xanthen-4-yl)-4-morpholinopyridin-2(1H)-one] | 
100 to 500 nM | O=c1cc(N2CCOCC2)cc(-c2cccc3c2Oc2ccc(NC4CN(CCc5ccccc5)C4)cc2C3)[nH]1 [Example 2-19-6, 4-Morpholino-6-(7-((1-phenethylazetidin-3-yl)amino)-9H-xanthen-4-yl)pyridin-2(1H)-one] | 
500 to 2000 nM | CN(C)Cc1cc(CNc2ccc3c(c2)Cc2cccc(-c4cc(N5CCOCC5)cc(=O)[nH]4)c2O3)ccn1 [Example 2-21-8, 6-(7-(((2-((Dimethylamino)methyl)pyridin-4-yl)methyl)amino)-9H-xanthen-4-yl)-4-morpholino pyridin-2(1H)-one] | 
100 to 500 nM | CNc1ncc(C(C)Nc2ccc3c(c2)Cc2cccc(-c4cc(N5CCOCC5)cc(=O)[nH]4)c2O3)cn1 (stereo not shown) [Example 2-14-54, 6-(7-((1-(2-(Methylamino)pyrimidin-5-yl)ethyl)amino)-9H-xanthen-4-yl)-4-morpholino pyridin-2(1H)-one] | 
100 to 500 nM | O=c1cc(N2CCOCC2)cc(-c2cccc3c2Oc2ccc(NC4CCN(Cc5ccsc5)CC4)cc2C3)[nH]1 [Example 2-28-26, 4-Morpholino-6-(7-((1-(thiophen-3-ylmethyl)piperidin-4-yl)amino)-9H-xanthen-4-yl)pyridin-2(1H)-one] | 
100 to 500 nM | COc1ccc(CNc2ccc3c(c2)Cc2cccc(-c4cc(N5CCOCC5)cc(=O)[nH]4)c2O3)nc1 [Example 2-2-42, 6-(7-(((5-Methoxypyridin-2-yl)methyl)amino)-9H-xanthen-4-yl)-4-morpholino pyridin-2(1H)-one] | 
100 to 500 nM | Cc1nccnc1CNc1ccc2c(c1)Cc1cccc(-c3cc(N4CCOCC4)cc(=O)[nH]3)c1O2 [Example 2-14-75, 6-(7-(((3-Methylpyrazin-2-yl)methyl)amino)-9H-xanthen-4-yl)-4-morpholino pyridin-2(1H)-one] | 
100 to 500 nM | O=c1cc(N2CCOCC2)cc(-c2cccc3c2Oc2ccc(NC4CCN(CCc5ccncc5)CC4)cc2C3)[nH]1 [Example 2-30-7, 4-Morpholino-6-(7-((1-(2-(pyridin-4-yl)ethyl)piperidin-4-yl)amino)-9H-xanthen-4-yl)pyridin-2(1H)-one] | 
100 to 500 nM | CC(Nc1ccc2c(c1)Cc1cccc(-c3cc(N4CCOCC4)cc(=O)[nH]3)c1O2)c1ccnc(F)c1 (stereo not shown) [Example 2-14-25] | 
500 to 2000 nM | Cc1cccc(CN(CC(=O)O)c2ccc3c(c2)Cc2cccc(-c4cc(N5CCOCC5)cc(=O)[nH]4)c2O3)n1 [Example 2-17, 2-(((6-methylpyridin-2-yl)methyl)(5-(4-morpholino-6-oxo-1,6-dihydropyridin-2-yl)-9H-xanthen-2-yl)amino)acetic acid] | 
